In PubChem BioAssay AID1918941 (Molecular Pharmacology Branch, DTP, NCI, 2023):

Tested on: SW 1271 complex spheroids, viability
Assay: Anticancer human tumor SW 1271 cell line growth inhibition [LSD1];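 also: spheroids exposed to agents for 7 days before luminescence read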;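 as to viability, T/C: 100% = DMSO vehicle control viability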
Details: for IC50: curve of first compound; for viability, T/C: stronger effect = lower value
Description: Multicellular complex tumor spheroid response to LSD1 Inhibitor Iadademstat in combination with a variety of drugs and investigational agents in selected tumor cell lines
The current study was undertaken to assess response to LSD1 inhibitors in combination with standard-of-care drugs and investigational agents in solid tumor complex spheroid models as well as in the K-562 leukemia. Complex spheroids include a stromal component modeled by human endothelial cells (HUVEC) and fibroblasts modeled by human mesenchymal stem cells (MSCs). The concentration ranges selected for each drug and investigational agent were based upon clinically achievable concentrations if the clinical Cmax of the agent was known.
Compounds. The drugs and investigational agents used in this study are listed on Table 1. All of the agents used, including staurosporine (NSC755774) and gemcitabine (NSC613327), were obtained from the Developmental Therapeutics Program, NCI. FDA-approved anticancer drugs are available from the NCI at http://dtp.nci.nih.gov/branches/dscb/oncology_drugset_explanation.html. Drugs and investigational agents were >95% pure by proton nuclear magnetic resonance (NMR) and liquid chromatography/mass spectrometry (LC/MS). Stock solutions were prepared at 400x in DMSO, stored at -70 degrees C, and diluted in fresh medium prior to their use. The final concentration of DMSO in cell culture wells never exceeded 0.25% (v/v). The FDA-approved anticancer drug set is available from the Developmental Therapeutics Program at https://dtp.cancer.gov/organization/dscb/obtaining/available_plates.htm. All drugs and investigational agents were tested over a range starting from a high concentration at or near the clinical Cmax and decreasing in half-log increments. If the clinical Cmax for an agent had not been determined, the highest concentration tested was 10 microM.
Cell Lines. The patient-derived cancer cell (PDC) lines: 292921-168-R-J2-PDC, K24384-001-R-PDC, and 521955-158-R2-J5-PDC pancreatic carcinomas, 556581-035-R-J1 ovarian carcinoma, 324938-238-R-J1-PDC, 855422-203-R-J1-PDC and 883617-216-R-J1-PDC urothelial bladder carcinomas, 743489-274-T-PDC renal cell carcinoma, 138582-R-J1 Merkel cell tumor, K60290-347-R-J1 and K57222-313-R-J1-PDC glioblastomas, 653999-131-R-J2-PDC, LG0703-F948-PDC, and 349418-098-R-PDC non-small cell lung carcinomas, 885512-296-R-J2-PDC, 171881-019-R-J1-PDC breast carcinomas and 186277-243-T-J2-PDC and 233499-124-R-J2-PDC colon carcinomas were obtained from the NCI Patient-Derived Models Repository (PDMR, https://pdmr.cancer.gov). The established cell lines NCI/ADR-RES (RRID:CVCL_14520 and OVCAR-5 (RRID:CVCL_1628) ovarian carcinomas, 786-O (RRID:CVCL_1051) and A498 (RRID:CVCL_A498) renal cell carcinoma, NCI-H211 (ATCC, cat. CRL-5824; RRID:CVCL_1529), NCI-H196 (ATCC, cat. CRL-5823, RRID:CVCL_1509), SW 1271 (ATCC, cat. CRL-2177, RRID:CVCL_1716) and NCI-H1876 (ATCC, cat. CRL-5902, RRID:CVCL_1503) small cell lung carcinomas, MDA-MB-231 (RRID:CVCL_0062) and MDA-MB-468 (RRID:CVCL_0419)breast carcinomas (10-12). Pooled donor human umbilical vein endothelial cells (HUVEC, Lonza, cat. CC-2519) and human mesenchymal stem cells (hMSC, Lonza, cat. PT-2501) were purchased from Lonza (Walkersville, MD).
Cell Culture. All cells were maintained in an incubator at 37 degrees C and 5% CO2 with 95% humidity. The PDC lines were cultured according to standard operating procedures established by the NCI PDMR (https://pdmr.cancer.gov). Briefly all PDCs were thawed and cultured in Matrigel-coated flasks prepared with a working solution of 1X Ham's F-12 nutrient mix, without supplementation (Invitrogen, Waltham, MA, cat. 11765054), 100 U/mL penicillin-streptomycin (Invitrogen, cat. 15140122), and 2.5% Matrigel (Corning Inc., Corning, NY, cat. 354248) for the first three passages. […]

[1] = second compound 0.1 µM, first compound 0.00316 µM
[2] = second compound 0.1 µM, first compound 0.01 µM
[3] = second compound 0.1 µM, first compound 0.0316 µM
[4] = second compound 0.1 µM, first compound 0.1 µM
[5] = second compound 0.316 µM, first compound 0.00316 µM
[6] = second compound 0.316 µM, first compound 0.01 µM
[7] = second compound 0.316 µM, first compound 0.0316 µM
[8] = second compound 0.316 µM, first compound 0.1 µM
[9] = second compound 1 µM, first compound 0.00316 µM
[10] = second compound 1 µM, first compound 0.01 µM
[11] = second compound 1 µM, first compound 0.0316 µM
[12] = second compound 1 µM, first compound 0.1 µM
[13] = second compound 3.16 µM, first compound 0.00316 µM
[14] = second compound 3.16 µM, first compound 0.01 µM
[15] = second compound 3.16 µM, first compound 0.0316 µM
[16] = second compound 3.16 µM, first compound 0.1 µM
[17] = second compound 10 µM, first compound 0.00316 µM
[18] = second compound 10 µM, first compound 0.01 µM
[19] = second compound 10 µM, first compound 0.0316 µM
[20] = second compound 10 µM, first compound 0.1 µM

Structure (SMILES): CC[C@@]1(O)C(=O)OCc2c1cc1n(c2=O)Cc2cc3c(CN(C)C)c(O)ccc3nc2-1 + NC1CC1c1ccc(-c2cccc(O)c2)cc1
- IC50 (second compound 0.1 µM): 52.6 nM
- IC50 (second compound 0.316 µM): 44.6 nM
- IC50 (second compound 1 µM): 27.8 nM
- IC50 (second compound 3.16 µM): > 100 nM
- IC50 (second compound 10 µM): 57 nM
- viability, T/C (second compound 0.1 µM, first compound 0.000316 µM): 93.2%
- viability, T/C (second compound 0.1 µM, first compound 0.001 µM): 81.3%
- viability, T/C [1]: 72.5%
- viability, T/C [2]: 63.6%
- viability, T/C [3]: 55.9%
- viability, T/C [4]: 43.5%
- viability, T/C (second compound 0.316 µM, first compound 0.000316 µM): 83%
- viability, T/C (second compound 0.316 µM, first compound 0.001 µM): 79.4%
- viability, T/C [5]: 77.4%
- viability, T/C [6]: 63.6%
- viability, T/C [7]: 54.7%
- viability, T/C [8]: 41.6%
- viability, T/C (second compound 1 µM, first compound 0.000316 µM): 76.6%
- viability, T/C (second compound 1 µM, first compound 0.001 µM): 79.5%
- viability, T/C [9]: 69.1%
- viability, T/C [10]: 53.4%
- viability, T/C [11]: 52.4%
- viability, T/C [12]: 46.5%
- viability, T/C (second compound 3.16 µM, first compound 0.000316 µM): 84.9%
- viability, T/C (second compound 3.16 µM, first compound 0.001 µM): 75.5%
- viability, T/C [13]: 66%
- viability, T/C [14]: 59.2%
- viability, T/C [15]: 54.3%
- viability, T/C [16]: 50.5%
- viability, T/C (second compound 10 µM, first compound 0.000316 µM): 74.7%
- viability, T/C (second compound 10 µM, first compound 0.001 µM): 78.9%
- viability, T/C [17]: 62.1%
- viability, T/C [18]: 58.2%
- viability, T/C [19]: 54.1%
- viability, T/C [20]: 47.3%

Structure (SMILES): COc1cc(C2c3cc4c(cc3C(OC3OC5COC(C)OC5C(O)C3O)C3COC(=O)C23)OCO4)cc(OC)c1O (stereo not given) + NC1CC1c1ccc(-c2cccc(O)c2)cc1
- IC50 (second compound 0.1 µM): 1390 nM
- IC50 (second compound 0.316 µM): > 3000 nM
- IC50 (second compound 1 µM): 582 nM
- IC50 (second compound 3.16 µM): > 3000 nM
- IC50 (second compound 10 µM): 289 nM
- viability, T/C (second compound 0.1 µM, first compound 0.00949 µM): 84.4%
- viability, T/C (second compound 0.1 µM, first compound 0.03 µM): 68.3%
- viability, T/C (second compound 0.1 µM, first compound 0.0949 µM): 63.8%
- viability, T/C (second compound 0.1 µM, first compound 0.3 µM): 53.7%
- viability, T/C (second compound 0.1 µM, first compound 0.949 µM): 56.7%
- viability, T/C (second compound 0.1 µM, first compound 3 µM): 44.4%
- viability, T/C (second compound 0.316 µM, first compound 0.00949 µM): 70.7%
- viability, T/C (second compound 0.316 µM, first compound 0.03 µM): 58.9%
- viability, T/C (second compound 0.316 µM, first compound 0.0949 µM): 67.7%
- viability, T/C (second compound 0.316 µM, first compound 0.3 µM): 52.8%
- viability, T/C (second compound 0.316 µM, first compound 0.949 µM): 49.9%
- viability, T/C (second compound 0.316 µM, first compound 3 µM): 54%
- viability, T/C (second compound 1 µM, first compound 0.00949 µM): 79.2%
- viability, T/C (second compound 1 µM, first compound 0.03 µM): 67.9%
- viability, T/C (second compound 1 µM, first compound 0.0949 µM): 62.9%
- viability, T/C (second compound 1 µM, first compound 0.3 µM): 57.1%
- viability, T/C (second compound 1 µM, first compound 0.949 µM): 45.8%
- viability, T/C (second compound 1 µM, first compound 3 µM): 38%
- viability, T/C (second compound 3.16 µM, first compound 0.00949 µM): 64.9%
- viability, T/C (second compound 3.16 µM, first compound 0.03 µM): 55.2%
- viability, T/C (second compound 3.16 µM, first compound 0.0949 µM): 61.3%
- viability, T/C (second compound 3.16 µM, first compound 0.3 µM): 48.2%
- viability, T/C (second compound 3.16 µM, first compound 0.949 µM): 48.5%
- viability, T/C (second compound 3.16 µM, first compound 3 µM): 59.9%
- viability, T/C (second compound 10 µM, first compound 0.00949 µM): 61%
- viability, T/C (second compound 10 µM, first compound 0.03 µM): 60.9%
- viability, T/C (second compound 10 µM, first compound 0.0949 µM): 53.1%
- viability, T/C (second compound 10 µM, first compound 0.3 µM): 51.5%
- viability, T/C (second compound 10 µM, first compound 0.949 µM): 41.6%
- viability, T/C (second compound 10 µM, first compound 3 µM): 46.5%

Structure (SMILES): Nc1ncn(C2CC(O)C(CO)O2)c(=O)n1 (stereo not given) + NC1CC1c1ccc(-c2cccc(O)c2)cc1
- IC50 (second compound 0.1 µM): > 1000 nM
- IC50 (second compound 0.316 µM): > 1000 nM
- IC50 (second compound 1 µM): > 1000 nM
- IC50 (second compound 3.16 µM): > 1000 nM
- IC50 (second compound 10 µM): > 1000 nM
- viability, T/C [1]: 96.2%
- viability, T/C [2]: 77.9%
- viability, T/C [3]: 84.7%
- viability, T/C [4]: 62.4%
- viability, T/C (second compound 0.1 µM, first compound 0.316 µM): 66.7%
- viability, T/C (second compound 0.1 µM, first compound 1 µM): 81%
- viability, T/C [5]: 68%
- viability, T/C [6]: 73.2%
- viability, T/C [7]: 75.2%
- viability, T/C [8]: 71.6%
- viability, T/C (second compound 0.316 µM, first compound 0.316 µM): 70.5%
- viability, T/C (second compound 0.316 µM, first compound 1 µM): 77.7%
- viability, T/C [9]: 76.4%
- viability, T/C [10]: 73.5%
- viability, T/C [11]: 81.8%
- viability, T/C [12]: 56.2%
- viability, T/C (second compound 1 µM, first compound 0.316 µM): 69.5%
- viability, T/C (second compound 1 µM, first compound 1 µM): 64.1%
- viability, T/C [13]: 69.5%
- viability, T/C [14]: 69.7%
- viability, T/C [15]: 69.8%
- viability, T/C [16]: 63.9%
- viability, T/C (second compound 3.16 µM, first compound 0.316 µM): 52.7%
- viability, T/C (second compound 3.16 µM, first compound 1 µM): 72.7%
- viability, T/C [17]: 69.5%
- viability, T/C [18]: 70.6%
- viability, T/C [19]: 61%
- viability, T/C [20]: 57.9%
- viability, T/C (second compound 10 µM, first compound 0.316 µM): 57.7%
- viability, T/C (second compound 10 µM, first compound 1 µM): 59%
